According to patent US5824683A, “2'-[[4'-h alo-[1,1'-biphenyl]-4-yl]methyl]-5'-methyl-spiro[cyclopentane-1,7' (8'H)-[3H] imidazo[2,1-b]purin]-4' (5'H)-ones” (Schering Corporation, priority 1996, dated 1998):

Experiments:
[1] = biological target: T1, PDE Type I (calcium-calmodulin dependent phosphodiesterase, CaM-PDE) (Bos taurus, UniProt P14100); assay: Phosphodiesterase inhibition in vitro, Type I (calcium-calmodulin dependent phosphodiesterase, CaM-PDE); type: biochemical; conditions: CaM-PDE from bovine aorta; 1 μM 3H-cGMP substrate; pH 7.5; 25 minutes, room temperature
T1 construct: from tissue; host or cells: bovine aorta

[2] = Plasma levels in SHR after oral dosing; type: in vivo; conditions: rat, 10 mg/kg, 10 mpk orally, sampled 0.5, 1, 2, 3 and 4 hours, read-out: Plasma Level AUC
Procedure: SHRs dosed orally with test compound at 10 mpk and plasma levels were subsequently measured at intervals of 0.5, 1, 2, 3 and 4 hours. Plasma levels (μg/ml) were plotted versus hours post dosing and the area under the curve (AUC, μghr/ml) was calculated.

[3] = tested on: spontaneously hypertensive rats (SHR); assay: Antihypertensive activity in conscious spontaneously hypertensive rats (SHR); type: in vivo, rat; conditions: 10 mpk po, fasted overnight, mean blood pressure
Procedure: The ability of the compounds of the present invention to lower blood pressure can be assessed in vivo in conscious spontaneously hypertensive rats (SHR). SHR males are purchased from Taconic Farms, Germantown New York and are approximately 16-18 weeks old when anesthetized with ether. The caudal (ventral tail) artery is cannulated with polyethylene tubing (PESO) and blood pressure and heart rate are recorded as described by Baum, T. et. al, J. Cardiovasc. Pharmacol. Vol 5, pp. 655-667, (1983). Rats are placed into plastic cylindrical cages where they rapidly recover consciousness. Blood pressure and heart rate are allowed to stabilize for approximately 90 minutes prior to compound administration. Compounds are administered orally as solutions or suspensions in 0.4% aqueous methylcellulose vehicle via a feeding needle. The compound or 0.4% aqueous methylcellulose vehicle are given in a volume of 4 ml/kg to SHRs that had been fasted overnight. Activity is expressed as the fall in mean blood pressure (MBP) in millimeters of mercury (mm Hg). Compound-induced changes are compared with the changes in an appropriate placebo group.

[4] = biological target: T2, PDE Type V (cGMP phosphodiesterase, cGMP-PDE) (Bos taurus, UniProt Q28156); assay: Phosphodiesterase inhibition in vitro, Type V (cGMP phosphodiesterase, cGMP-PDE); type: biochemical; conditions: cGMP-PDE from bovine lung; 1 μM 3H-cGMP substrate; pH 7.5; 25 minutes, room temperature
T2 construct: homogeneous enzyme obtained from bovine lung and purified by ion-exchange chromatography, gel filtration, and sucrose gradient centrifugation; from tissue; host or cells: bovine lung

| Structure (SMILES) | IC50 [1] [nM] | AUC at 4 h [2] [ng·h/mL] | SHR Antihypertensive: Fall in MBP [3] [mmHg] | IC50 [4] [nM] |
| --- | --- | --- | --- | --- |
| CN1C(=O)c2[nH]c(Cc3ccc(-c4ccc(Cl)cc4)cc3)nc2N2CC3(CCCC3)N=C12 [Example 1] | 11 | 4800 | -24 | 170 |
| CN1C(=O)c2[nH]c(Cc3ccc(-c4ccc(Br)cc4)cc3)nc2N2CC3(CCCC3)N=C12 [Example 2] | 12 | 5890 | -11 | 210 |
| CN1C(=O)c2[nH]c(Cc3ccc(-c4ccc(F)cc4)cc3)nc2N2CC3(CCCC3)N=C12 [Example 3] | 9 | 7730 | -35 | 520 |
| COc1ccc(-c2ccc(Cc3nc4c([nH]3)C(=O)N(C)C3=NC5(CCCC5)CN34)cc2)cc1 [Ref. Cpd., 2'-[[(4'-methoxy-1,1'-biphenyl) -4-yl]methyl]-5'-methyl-spiro[cyclopentane-1,7'(8'H)-[3H]imidazo-[2,1-b]purin]-4'(5'H)-one, reference compound] | 5 | 3340 | -35 | 500 |
